This note sets out measurements from BindingDB's records for doi:10.1002/cbic.201600573 (X-Chem Pharmaceuticals, 2017).

pIC50: −log10 of the molar value.

Tyrosine-protein kinase BTK, sequence (Q06187 whole entry): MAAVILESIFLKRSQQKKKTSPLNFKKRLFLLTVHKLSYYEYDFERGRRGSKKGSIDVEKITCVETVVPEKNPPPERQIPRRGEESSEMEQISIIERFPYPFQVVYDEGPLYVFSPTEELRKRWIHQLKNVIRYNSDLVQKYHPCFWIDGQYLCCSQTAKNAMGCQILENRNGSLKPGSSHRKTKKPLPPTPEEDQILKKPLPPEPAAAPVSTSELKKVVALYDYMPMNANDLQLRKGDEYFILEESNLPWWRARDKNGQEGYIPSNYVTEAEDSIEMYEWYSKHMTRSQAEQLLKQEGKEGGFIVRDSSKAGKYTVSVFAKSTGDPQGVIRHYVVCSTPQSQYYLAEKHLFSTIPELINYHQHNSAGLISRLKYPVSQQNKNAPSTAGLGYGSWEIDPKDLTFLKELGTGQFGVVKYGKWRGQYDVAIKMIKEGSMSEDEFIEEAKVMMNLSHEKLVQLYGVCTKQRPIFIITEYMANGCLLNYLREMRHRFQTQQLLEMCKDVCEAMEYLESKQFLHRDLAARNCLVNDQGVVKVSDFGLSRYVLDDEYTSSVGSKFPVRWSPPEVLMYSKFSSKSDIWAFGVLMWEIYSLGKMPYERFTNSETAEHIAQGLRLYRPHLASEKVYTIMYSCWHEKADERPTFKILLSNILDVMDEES

The target of this assay is Tyrosine-protein kinase BTK (Homo sapiens, UniProt Q06187). The assay can be described thus: BTK FRET Competitive Binding Assay. Conditions: 30 °C. How it is done:
The BTK time-resolved FRET-based competitive binding assay and cell-based BTK assays have been previously described.[Xu et al., J.Pharmacol. Exp. Ther., 341:90-103] For the BTK Omnia kinetic assay used in the mechanism of action experiments, assay reagents were prepared from the Omnia Y peptide 5 kit as follows: kinase reaction buffer was diluted to 1X in dH2O. A 10X substrate (100 μm) was prepared in dH20. ATP was prepared at 1 mM (10×) in dH2O, and 2 mM (10×) DTT was prepared in dH2O. A master mix of kinase buffer (10×), peptide (10×), and DTT (10×), all at 2 μL, and dH2O (4 μL) was prepared per well. Untagged BTK enzyme was run in a final concentration of 20 nM. Compounds at varying concentrations and ATP dilutions were prepared in 1V kinase buffer. Final compound DMSO concentration was 1.25 %. In a black non-binding plate (Corning 3676), enzyme (5 μL) was added to compound/ATP mix (5 μL). The plate was incubated for 20 min at 30 °C, then master mix (10 μL) was added into each well and mixed. The plate was incubated at 30 °C, and fluorescence intensity readings at λex=360 nm, λem=485 nm was collected at predetermined intervals on the Tecan M1000.
The pIC50 is the IC50 on a negative log10 scale, so that one unit is a factor of ten. Read a low pIC50 as a high IC50. Take `CNC(=O)C(Cc1c[nH]c2ncccc12)NC(=O)c1n[nH]c2cccc(CNc3ccc(O)cc3Cl)c12` (stereo not drawn) [BTK inhibitor, 1]: the pIC50 is 5.60.
The compound `CNC(=O)Cc1cccc(NC(=O)c2n[nH]cc2CNc2ccccc2[C@H](O)c2ccccc2)c1` [BTK inhibitor, 2] had a negative logarithm of the IC50 (pIC50) of 6.68.
The compound `CNC(=O)[C@H]1Cc2c([nH]c3ccccc23)CN1C(=O)c1occc1CNc1ccc2nccnc2c1` [BTK inhibitor, 3] gave a negative-log IC50 (pIC50) of 9.26.
